Results on 28 compounds are retold here after patent US6803372B2, “Spiro compounds” (Banyu Pharmaceutical Co., Ltd., priority 1999, dated 2004).

A word on the melting point: it is the temperature of the solid-liquid transition. What is called IC50 is the concentration that gives 50% inhibition.

Tested on in the first series: not given
Assay: not given
Details: not given
`O=C1NC2(CCN(C(=O)Nc3cnc(-c4ccccc4)cn3)CC2)c2ccccc21` [Example 2, 3-oxo-N-(5-phenyl-2-pyrazinyl)spiro[isoindoline-1,4′-piperidine]-1′-carboxamide]: the melting point lay in the range of 286 to 287 °C.
The compound `Cc1ccc2ccc(NC(=O)N3CCC4(CC3)NC(=O)c3ccccc34)nc2c1` [Example 3, N-(7-methyl-2-quinolyl)-3-oxospiro[isoindoline-1,4′-piperidine]-1′-carboxamide] came in with a melting point of 194 to 196 °C.
Turning to `O=C1Cc2ccccc2C2(CCN(C(=O)Nc3cnc(-c4ccccc4)cn3)CC2)N1` [Example 6, 3,4-Dihydro-3-oxo-N-(5-phenyl-2-pyrazinyl)spiro[isoquinoline-1(2H),4′-piperidine]-1′-carboxamide], the melting point was 237 to 239 °C.
In the case of `Cc1ccc2ccc(NC(=O)N3CCC4(CC3)NC(=O)Cc3ccccc34)nc2c1` [Example 7, 3,4-Dihydro-N-(7-methyl-2-quinolyl)-3-oxospiro[isoquinoline-1(2H),4′-piperidine]-1′-carboxamide], the melting point lay within 216 to 218 °C.
Turning to `CC(=O)c1ccc(NC(=O)N2CCC3(CC2)NC(=O)Cc2ccccc23)cc1` [Example 8, N-(4-acetylphenyl)-3,4-dihydro-3-oxospiro[isoquinoline-1(2H),4′-piperidine]-1′-carboxamide], the melting point was over 300 °C.
Still for that read-out and setting: the value for `O=C1Cc2ccccc2C2(CCN(C(=O)Nc3ccc4c(c3)CCCC4=O)CC2)N1` [Example 10, 3,4-Dihydro-3-oxo-N-(5-oxo-5,6,7,8-tetrahydro-2-naphthyl)spiro[isoquinoline-1(2H),4′-piperidine]-1′-carboxamide] was 220.5 to 222.2 °C; that for `CC(C)=Cc1cnc(NC(=O)N2CCC3(CC2)NC(=O)Cc2ccccc23)cn1` [Example 11, 3,4-Dihydro-N-[5-(2-methyl-1-propenyl)-2-pyrazinyl]-3-oxospiro[isoquinoline-1(2H),4′-piperidine]-1′-carboxamide] was 232.9 to 236.5 °C; that for `O=C1Cc2ccccc2C2(CCN(C(=O)Nc3cc(-c4ccccc4)no3)CC2)N1` [Example 12, 3,4-Dihydro-3-oxo-N-(3-phenyl-5-isoxazolyl)spiro[isoquinoline-1(2H),4′-piperidine]-1′-carboxamide] was 239 to 241 °C.
In turn, `O=C1Cc2ccccc2C2(CCN(C(=O)Nc3cn(-c4cccc5ccoc45)cn3)CC2)N1` [Example 13, N-[1-(7-benzo[b]furanyl)-4-imidazolyl]-3,4-dihydro-3-oxospiro[isoquinoline-1(2H),4′-piperidine]-1′-carboxamide] registered a melting point of 192 to 194 °C.
Still for that read-out and setting: the value for `O=C1Cc2ccccc2C2(CCN(C(=O)Nc3cn(-c4cccc(OC(F)F)c4)cn3)CC2)N1` [Example 14, N-[1-(3-difluoromethoxyphenyl)-4-imidazolyl]-3,4-dihydro-3-oxospiro[isoquinoline-1(2H),4′-piperidine]-1′-carboxamide] was 161 to 163 °C; that for `O=C1Cc2ccccc2C2(CCN(C(=O)Nc3ccc(C(=O)c4ccccn4)cc3)CC2)N1` [Example 15, 3,4-Dihydro-3-oxo-N-[4-(2-pyridylcarbonyl)phenyl]spiro[isoquinoline-1(2H),4′-piperidine]-1′-carboxamide] was 162 to 164 °C.
For `O=C1Cc2ccccc2C2(CCN(C(=O)Nc3ccc(Cl)c(Cl)c3)CC2)N1` [Example 16, N-(3,4-dichlorophenyl)-3,4-dihydro-3-oxospiro[isoquinoline-1(2H),4′-piperidine]-1′-carboxamide], the melting point was over 300 °C.
Turning to `O=C1Cc2ccccc2C2(CCN(C(=O)Nc3cn(-c4cccc(Cl)c4)cn3)CC2)N1` [Example 17, N-[1-(3-chlorophenyl)-4-imidazolyl]-3,4-dihydro-3-oxospiro[isoquinoline-1(2H),4′-piperidine]-1′-carboxamide], the melting point lay within 255 to 258 °C.
Compound `O=C1Cc2ccccc2C2(CCN(C(=O)Nc3ncc(-c4ccccc4)s3)CC2)N1` [Example 18, 3,4-Dihydro-3-oxo-N-(5-phenyl-2-thiazolyl)spiro[isoquinoline-1(2H),4′-piperidine]-1′-carboxamide] registered a melting point of over 300 °C.
Compound `O=C1Cc2ccccc2C2(CCN(C(=O)Nc3cnc(-c4ccccn4)cn3)CC2)N1` [Example 19, 3,4-Dihydro-3-oxo-N-[5-(2-pyridyl)-2-pyrazinyl]spiro[isoquinoline-1(2H),4′-piperidine]-1′-carboxamide] returned a melting point of 223 to 225 °C.
The same measure, in the same setting: with `Cc1cccc2sc(NC(=O)N3CCC4(CC3)NC(=O)Cc3ccccc34)nc12` [Example 20, 3,4-Dihydro-N-(4-methyl-2-benzothiazolyl)-3-oxospiro[isoquinoline-1(2H),4′-piperidine]-1′-carboxamide] the figure was 144 to 146 °C.
Compound `O=C1Cc2ccccc2C2(CCN(C(=O)Nc3nc4cc(Cl)ccc4o3)CC2)N1` [Example 21, N-(5-chloro-2-benzoxazolyl)-3,4-dihydro-3-oxospiro[isoquinoline-1(2H),4′-piperidine]-1′-carboxamide] displayed a melting point of 256 to 258 °C.
`Cc1ccc2ccc(NC(=O)N3CCC4(CC3)OC(=O)c3ccccc34)nc2c1` [Example 24, N-(7-methyl-2-quinolyl)-3-oxospiro[isobenzofuran-1(3H),4′-piperidine]-1′-carboxamide]: the melting point was 178 to 180 °C.
On the same count and under the same terms, the value for `O=C1OC2(CCN(C(=O)Nc3cn(-c4cnc5ccccc5c4)cn3)CC2)c2ccccc21` [Example 28, 3-Oxo-N-[1-(3-quinolyl)-4-imidazolyl]spiro[isobenzofuran-1(3H),4′-piperidine]-1′-carboxamide] was 251 to 254 °C; that for `O=C1OC2(CCN(C(=O)Nc3cc(-c4ccc(Cl)cc4)[nH]n3)CC2)c2ccccc21` [Example 30, N-[5-(4-chlorophenyl)-3-pyrazolyl]-3-oxospiro[isobenzofuran-1(3H),4′-piperidine]-1′-carboxamide] was 255 to 258 °C.
The compound `O=C1OC2(CCN(C(=O)Nc3cc(-c4cnc5ccccc5c4)[nH]n3)CC2)c2ccccc21` [Example 31, 3-oxo-N-[5-(3-quinolyl)-3-pyrazolyl]spiro[isobenzofuran-1(3H),4′-piperidine]-1′-carboxamide] came in with a melting point of 253 to 257 °C.
In turn, `O=C1OC2(CCN(C(=O)Nc3ccc4ncc(OC(F)F)cc4n3)CC2)c2ccccc21` [Example 35, N-(7-difluoromethoxypyrido[3,2-b]pyridin-2-yl)-3-oxospiro[isobenzofuran-1(3H),4′-piperidine]-1′-carboxamide] came in with a melting point of 193 °C.
For the compound `O=C1OC2(CCN(C(=O)Nc3cn(-c4cccc(CCO)c4)cn3)CC2)c2ccccc21` [Example 37, N-{1-[3-(2-hydroxyethyl)phenyl]-4-imidazolyl}-3-oxospiro[isobenzofuran-1(3H),4′-piperidine]-1′-carboxamide], the melting point was in the range of 99 to 100 °C.
The same measure, in the same setting: the value for `CCn1ccnc1-c1ccc(NC(=O)N2CCC3(CC2)OC(=O)c2ccccc23)cc1` [Example 38, N-[4-(1-ethyl-2-imidazolyl)phenyl]-3-oxospiro[isobenzofuran-1(3H),4′-piperidine]-1′-carboxamide] was 221 to 223 °C; that for `COc1cccc(-n2cnc(NC(=O)N3CCC4(CC3)OC(=O)c3ccccc34)c2)c1` [Example 39, N-[1-(3-methoxyphenyl)-4-imidazolyl]-3-oxospiro[isobenzofuran-1(3H),4′-piperidine]-1′-carboxamide] was 208 to 210 °C.
In the case of `O=C1Cc2ccccc2C2(CCN(C(=O)Nc3cnc(C(=O)c4ccccc4)cn3)CC2)O1` [Example 46, N-(5-benzoyl-2-pyrazinyl)-3,4-dihydro-3-oxospiro[1H-2-benzopyran-1,4′-piperidine]-1′-carboxamide], the melting point was 128 to 131 °C.

The target in another series is T1, human NPY Y5 receptor (Homo sapiens, UniProt Q15761).
T1 construct: expressed in transfected cells; host or cells: COS-7, CHO and LM(tk-)
T1 sequence (Q15761 1-445): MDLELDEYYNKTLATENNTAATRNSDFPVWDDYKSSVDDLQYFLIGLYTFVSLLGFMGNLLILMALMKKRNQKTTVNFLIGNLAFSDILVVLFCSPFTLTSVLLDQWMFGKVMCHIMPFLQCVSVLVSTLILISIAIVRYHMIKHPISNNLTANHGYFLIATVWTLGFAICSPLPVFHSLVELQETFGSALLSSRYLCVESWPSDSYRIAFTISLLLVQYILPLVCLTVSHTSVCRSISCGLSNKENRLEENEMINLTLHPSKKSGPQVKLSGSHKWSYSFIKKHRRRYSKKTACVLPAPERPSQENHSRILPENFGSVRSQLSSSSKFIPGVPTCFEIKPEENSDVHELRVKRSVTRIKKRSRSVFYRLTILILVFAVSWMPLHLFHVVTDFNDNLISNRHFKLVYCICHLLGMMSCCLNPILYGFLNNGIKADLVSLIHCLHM
The series is described as follows: NPY binding inhibition test (Pharmacological Test 1). The settings on record: [125I]peptideYY, membrane sample from cells expressing NPY Y5 receptor, 25° C., 2 hours; read-out: IC50 of the test compound against specific peptideYY binding. The text has this:
Pharmacological Test 1 (NPY Binding Inhibition Test)
cDNA sequence encoding human NPY Y5 receptor [International patent publication number WO96/16542] was cloned into expression vectors pcDNA3, pRc/RSV (made by Invitrogen Inc.) and pCI-neo (made by Promega Inc.). This obtained expression vectors were transfected to host cells COS-7, CHO and LM(tk-) (American Type Culture Collection) by cationic lipid method [Proceedings of the National Academy of Sciences of the United States of America, 84: 7413(1987)] to give NPY Y5 receptor expression cells.
A membrane sample prepared from the cells which expressed NPY Y5 receptor was incubated together with a test compound and [^125I]peptideYY (NEN) (20,000 cpm) in an assay buffer (25 mM Tris buffer, pH7.4, containing 10 mM magnesium chloride, 1 mM phenylmethylsulfonyl fluoride, 0.1% bacitracin and 0.5% bovine serum albumin) at 25° C. for 2 hours, then filtered through a glass filter GF/C and washed with 5 mM Tris buffer (pH7.4) containing 0.3% BSA. The radioactivity of the cake on the glass filter was measured. Nonspecific binding was measured in the presence of 1 μM peptideYY and a 50% Inhibitory Concentration (IC50) of the test compound against specific peptideYY binding was determined [Endocrinology, 131: 2090(1992)].
Regarding `O=C(c1ccccc1)c1ccc(NC(=O)N2CCC3(CC2)NC(=O)c2ccccc23)cc1` [Example 1, N-(4-benzoylphenyl)-3-oxospiro[isoindoline-1,4′-piperidine]-1′-carboxamide], the concentration for half-maximal inhibition (IC50) was determined as 1.2 nM.
For the compound `O=C1Cc2ccccc2C2(CCN(C(=O)Nc3ccc(C(=O)c4ccccc4)cc3)CC2)O1` [Example 44, N-(4-benzoylphenyl)-3,4-dihydro-3-oxospiro[1H-2-benzopyran-1,4′-piperidine]-1′-carboxamide], the IC50 worked out at 1.5 nM.
